How the values were obtained:
human CRF receptor = target: T1, human CRF receptor (Homo sapiens, UniProt P34998); experiment: CRF binding inhibitory rate / receptor binding experiment with 125I-CRF; conditions: human CRF receptor expressing CHO cellular membrane fraction, 50 pM 125I-CRF (ovine CRF), room temperature 1.5 hr, 0.05 nM to 10 μM of compound; read-out: IC50 values (CRF binding inhibition)
T1 construct: expressed in transfected cells; host or cells: CHO cells (membrane fraction)
T1 sequence (P34998 24-415): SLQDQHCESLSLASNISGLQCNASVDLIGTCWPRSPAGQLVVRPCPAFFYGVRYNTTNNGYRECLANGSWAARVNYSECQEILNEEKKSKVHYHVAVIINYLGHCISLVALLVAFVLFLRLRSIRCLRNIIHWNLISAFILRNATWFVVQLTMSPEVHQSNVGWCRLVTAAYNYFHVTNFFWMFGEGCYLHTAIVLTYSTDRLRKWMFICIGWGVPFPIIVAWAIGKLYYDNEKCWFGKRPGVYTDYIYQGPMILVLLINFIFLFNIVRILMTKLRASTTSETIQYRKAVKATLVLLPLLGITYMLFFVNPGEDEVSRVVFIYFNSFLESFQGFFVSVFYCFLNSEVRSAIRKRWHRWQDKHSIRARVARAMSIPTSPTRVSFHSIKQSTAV
Experimental: Measurement of CRF Binding Inhibitory Rate
A receptor binding experiment was carried out using a human CRF receptor expressing CHO cellular membrane fraction and ovine CRF, [^125I]-tyr^0(^125I-CRF). 1000 nM of a test compound was incubated with 1 μg of human CRF receptor expressing CHO cellular membrane fraction and 50 pM of ^125I-CRF in a binding assay buffer (50 mM Tris-HCl, 5 mM EDTA, 10 mM MgCl2, 0.05% CHAPS, 0.1% BSA, 0.5 mM PMSF, 0.1 μg/mL pepstatin, 20 μg/mL leupeptin, pH 7.5). In addition, for measuring nonspecific binding (NSB), 0.1 μM unlabelled human Urocortin was incubated with 5 μg of human CRF receptor expressing CHO cellular membrane fraction and 50 pM of ^125I-CRF in a binding assay buffer. After a binding reaction was carried out at room temperature for 1.5 hr, the membrane was entrapped on a glass filter (UniFilter plate GF-C/Perkin Elmer) by suction filtration using a cell harvester (Perkin Elmer), and washed with ice-cooled 50 mM Tris-HCl (pH 7.5). After drying the glass filter, a liquid scintillation cocktail (Microscinti 0, Perkin Elmer) was added, and the radioactivity of ^125I-CRF remaining on a glass filter was measured using Topcount (Perkin Elmer).
(TB-SB)/(TB-NSB)×100 (SB: radioactivity when a compound is added, TB: maximum binding radioactivity, NSB: nonspecific binding radioactivity) were calculated to obtain binding inhibitory rates under the range of the presence from 0.05 nM to 10 μM of each compound. The IC50 values were calculated by using GraphPad Prism software.

Compound | IC50 (human CRF receptor) | melting point
CC=C(CC)c1cccc2nc(Cc3c(C)cc(C)cc3C)n(C)c12 (mixture of isomers) [Example 4, 7-[1-Ethylprop-1-en-1-yl]-2-(mesitylmethyl)-1-methyl-1H-benzimidazole] | < 1000 nM | 
CCC(c1cccc2nc(Cc3c(Cl)cc(C(F)(F)F)cc3Cl)n(C)c12)C(C)OC(C)=O (mixture of isomers) [Example 8, 2-{2-[2,6-Dichloro-4-(trifluoromethyl)benzyl]-1-methyl-1H-benzimidazol-7-yl}-1-methylbutyl acetate] | < 1000 nM | 
CCN(CC)c1cccc2nc(Cc3c(C)cc(C)cc3C)n(C)c12 [Example 1, N,N-Diethyl-2-(mesitylmethyl)-1-methyl-1H-benzimidazol-7-amine] | < 1000 nM | 
CCN(CC)c1cccc2nc(Cc3c(Cl)cc(C(F)(F)F)cc3Cl)n(C)c12 [Example 2, 2-[2,6-Dichloro-4-(trifluoromethyl)benzyl]-N,N-diethyl-1-methyl-1H-benzimidazol-7-amine] | < 1000 nM | 150 to 151 °C
CCC(O)(CC)c1cccc2nc(Cc3c(C)cc(C)cc3C)n(C)c12 [Example 3, 3-[2-(Mesitylmethyl)-1-methyl-1H-benzimidazol-7-yl]pentan-3-ol] | < 1000 nM | 
CCC(CC)c1cccc2nc(Cc3c(C)cc(C)cc3C)n(C)c12 [Example 5, 7-(1-Ethylpropyl)-2-(mesitylmethyl)-1-methyl-1H-benzimidazole] | < 1000 nM | 
CCC(O)(CC)c1cccc2nc(Cc3c(Cl)cc(C(F)(F)F)cc3Cl)n(C)c12 [Example 6, 3-{2-[2,6-Dichloro-4-(trifluoromethyl)benzyl]-1-methyl-1H-benzimidazol-7-yl}pentan-3-ol] | < 1000 nM | 
CC=C(CC)c1cccc2nc(Cc3c(Cl)cc(C(F)(F)F)cc3Cl)n(C)c12 [Example 7, 2-[2,6-Dichloro-4-(trifluoromethyl)benzyl]-7-[1-ethylprop-1-en-1-yl]-1-methyl-1H-benzimidazole] | < 1000 nM | 
CCC(c1cccc2nc(Cc3c(Cl)cc(C(F)(F)F)cc3Cl)n(C)c12)C(C)O (stereo not drawn) [Example 9, 3-{2-[2,6-Dichloro-4-(trifluoromethyl)benzyl]-1-methyl-1H-benzimidazol-7-yl}pentan-2-ol] | < 1000 nM | 
CCC(CC)c1cccc2nc(C(O)c3c(C)cc(C)cc3C)n(C)c12 (stereo not drawn) [Example 10, [7-(1-Ethylpropyl)-1-methyl-1H-benzimidazol-2-yl](mesityl)methanol] | < 1000 nM | 132 to 134 °C

Reference: patent publication US8039500B2, “Fused heterocyclic compounds” (Takeda Pharmaceutical Company Limited, priority 2006, dated 2011)
